Assay results: article PMC11200585, “Prospects for Prostate Cancer Chemotherapy: Cytotoxic Evaluation and Mechanistic Insights of Quinolinequinones with ADME/PK Profile” (Biomedicines, 2024)

Columns and labels:
Format in all cases: cell-based, human
[1] = tested on: A549/ATCC; test: NCI-60 one-dose screen (non-small cell lung cancer); conditions: 10 µM single dose, 48 h
Procedure: (§1) The obtained quinolinequinones were submitted to NCI, Bethesda, USA, and, as per standard protocol of NCI, all compounds were evaluated for their antiproliferative activity at single-dose assay (10 µM concentration in DMSO) on a panel of 60 cancer cell lines derived from leukemia, non-small-cell lung, colon, CNS, melanoma, ovarian, renal, prostate, and breast, as per protocol. Tested compounds were added to the microtiter culture plates followed by incubation for 48 h at 37 °C. Sulforhodamine B (SRB), a protein-binding dye, is used for endpoint determination. The percent of the growth of the treated cells was determined in comparison to the untreated control cells and the results of each tested compound were reported. Data from one-dose experiments pertain to the percentage growth at 10 μM [16, 17, 18].

[2] = tested on: EKVX; test: as above; conditions: 10 µM single dose, 48 h
Procedure: as §1

[3] = tested on: HOP-62; test: as above; conditions: 10 µM single dose, 48 h
Procedure: as §1

[4] = tested on: HOP-92; test: as above; conditions: 10 µM single dose, 48 h
Procedure: as §1

[5] = tested on: NCI-H226; test: as above; conditions: 10 µM single dose
Procedure: as §1

[6] = tested on: NCI-H23; test: as above; conditions: 10 µM single dose, 48 h
Procedure: as §1

[7] = tested on: NCI-H322M; test: as above; conditions: 10 µM single dose
Procedure: as §1

[8] = tested on: NCI-H460; test: as above; conditions: 10 µM single dose
Procedure: as §1

[9] = tested on: NCI-H522; test: as above; conditions: 10 µM single dose, 48 h
Procedure: as §1

[10] = tested on: HCC-2998; test: NCI-60 one-dose screen (colon cancer); conditions: 10 µM single dose
Procedure: as §1

[11] = tested on: HCT-116; test: NCI-60 one-dose screen (colon cancer); conditions: 10 µM single dose, 48 h
Procedure: as §1

[12] = tested on: HCT-15; test: NCI-60 one-dose screen (colon cancer); conditions: 10 µM single dose, 48 h
Procedure: as §1

[13] = tested on: HT29; test: NCI-60 one-dose screen (colon cancer)
Procedure: as §1

[14] = tested on: DU-145; test: NCI-60 one-dose screen (prostate cancer); conditions: 10 µM single dose, 48 h
Procedure: as §1

[15] = tested on: PC-3; test: NCI-60 one-dose screen (prostate cancer); conditions: 10 µM single dose
Procedure: as §1

[16] = tested on: BT-549; test: NCI-60 one-dose screen (breast cancer); conditions: 10 µM single dose, 48 h
Procedure: as §1

[17] = tested on: HS 578T; test: NCI-60 one-dose screen (breast cancer); conditions: 10 µM single dose
Procedure: as §1

[18] = tested on: MCF7; test: NCI-60 one-dose screen (breast cancer); conditions: 10 µM single dose, 48 h
Procedure: as §1

[19] = tested on: MDA-MB-231/ATCC; test: NCI-60 one-dose screen (breast cancer); conditions: 10 µM single dose, 48 h
Procedure: as §1

[20] = tested on: MDA-MB-468; test: NCI-60 one-dose screen (breast cancer); conditions: 10 µM single dose, 48 h
Procedure: as §1

[21] = tested on: T-47D; test: NCI-60 one-dose screen (breast cancer); conditions: 10 µM single dose, 48 h
Procedure: as §1

[22] = tested on: MOLT-4; test: NCI-60 five-dose assay (leukemia); conditions: 48 h, SRB
[23] = tested on: NCI-H226; test: NCI-60 five-dose assay (non-small cell lung cancer); conditions: 48 h, SRB
[24] = tested on: SF-268; test: NCI-60 five-dose assay (CNS cancer); conditions: 48 h, SRB
[25] = tested on: LOX IMVI; test: NCI-60 five-dose assay (melanoma); conditions: 48 h, SRB
[26] = tested on: UACC-62; test: NCI-60 five-dose assay (melanoma); conditions: 48 h, SRB
[27] = tested on: OVCAR-3; test: NCI-60 five-dose assay (ovarian cancer); conditions: 48 h, SRB
[28] = tested on: OVCAR-5; test: NCI-60 five-dose assay (ovarian cancer); conditions: 48 h, SRB
[29] = tested on: NCI/ADR-RES; test: NCI-60 five-dose assay (ovarian cancer); conditions: 48 h, SRB
[30] = tested on: ACHN; test: NCI-60 five-dose assay (renal cancer); conditions: 48 h, SRB
[31] = tested on: CAKI-1; test: NCI-60 five-dose assay (renal cancer); conditions: 48 h, SRB
[32] = tested on: SN12C; test: NCI-60 five-dose assay (renal cancer); conditions: 48 h, SRB
[33] = tested on: PC-3; test: NCI-60 five-dose assay (prostate cancer); conditions: 48 h, SRB
[34] = tested on: MCF7; test: NCI-60 five-dose assay (breast cancer); conditions: 48 h, SRB
[35] = tested on: MDA-MB-231/ATCC; test: NCI-60 five-dose assay (breast cancer); conditions: 48 h, SRB
[36] = tested on: HS 578T; test: NCI-60 five-dose assay (breast cancer); conditions: 48 h, SRB
[37] = tested on: BT-549; test: NCI-60 five-dose assay (breast cancer); conditions: 48 h, SRB
[38] = tested on: T-47D; test: NCI-60 five-dose assay (breast cancer); conditions: 48 h, SRB
[39] = Homo sapiens, read-out: LC50 (the source's name)

## CCOc1ccccc1NC1=C(Cl)C(=O)c2nc(C)ccc2C1=O [AQQ2]
[1]
  GP (growth percentage): 59.11%
[2]
  GP (growth percentage): −2.24%
[3]
  GP (growth percentage): 84.25%
[4]
  GP (growth percentage): −89.25%
[5]; 48 h
  GP (growth percentage): 17.62%
[5]; Homo sapiens
  inhibition at 10 µM: 82.4%
[6]
  GP (growth percentage): −67.81%
[7]; 48 h
  GP (growth percentage): 28.84%
[7]; Homo sapiens
  inhibition at 10 µM: 71.2%
[8]; 48 h
  GP (growth percentage): 12.07%
[8]; Homo sapiens
  inhibition at 10 µM: 87.9%
[9]
  GP (growth percentage): −43.48%
[10]; 48 h
  GP (growth percentage): 20.35%
[10]; Homo sapiens
  inhibition at 10 µM: 79.7%
[11]
  GP (growth percentage): −79.44%
[12]
  GP (growth percentage): −76.56%
[13]; 10 µM single dose, 48 h
  GP (growth percentage): 19.96%
[13]; Homo sapiens, HT-29, 10 µM single dose
  inhibition at 10 µM: 80%
[14]
  GP (growth percentage): −85.02%
[15]; 48 h
  GP (growth percentage): 4.34%
[15]; Homo sapiens
  inhibition at 10 µM: 95.7%
[16]
  GP (growth percentage): 44.40%
[17]; 48 h
  GP (growth percentage): 1.05%
[17]; Homo sapiens
  inhibition at 10 µM: 99%
[18]
  GP (growth percentage): −59.68%
[19]
  GP (growth percentage): −63.63%
[20]
  GP (growth percentage): −90.72%
[21]
  GP (growth percentage): −40.00%
[22]
  TGI: 8.09 µM
[22]; Homo sapiens
  GI50: 2.03 µM
  LC50: > 100 µM
[23]
  TGI: 4.24 µM
[23]; Homo sapiens
  GI50: 1.78 µM
  LC50: 16.2 µM
[24]
  TGI: 2.94 µM
[24]; Homo sapiens
  GI50: 1.47 µM
  LC50 (concentration killing 50% of cells): 5.87 µM
[25]
  TGI: 2.22 µM
[25]; Homo sapiens
  GI50: 0.839 µM
  LC50 (concentration killing 50% of cells): 5.33 µM
[26]
  TGI: 3.36 µM
[26]; Homo sapiens
  GI50: 1.8 µM
  LC50 (concentration killing 50% of cells): 6.28 µM
[27]
  TGI: 2.03 µM
[27]; Homo sapiens
  GI50: 0.759 µM
[27]; [39]
  CC50: 4.54 µM
[28]
  TGI: 3.33 µM
[28]; Homo sapiens
  GI50: 1.84 µM
  LC50 (lethal concentration 50%): 6.03 µM
[29]
  TGI: 5.09 µM
[29]; Homo sapiens
  GI50: 1.89 µM
[29]; [39]
  CC50: > 100 µM
[30]
  TGI: 2.69 µM
[30]; Homo sapiens
  GI50: 1.35 µM
  LC50: 5.35 µM
[31]
  TGI: 2.84 µM
[31]; Homo sapiens
  GI50: 1.45 µM
  LC50 (lethal concentration, 50% net cell kill): 5.57 µM
[32]
  TGI: 3.04 µM
[32]; Homo sapiens
  GI50: 1.59 µM
  LC50 (concentration killing 50% of starting cells): 5.8 µM
[33]
  TGI: 2.77 µM
[33]; Homo sapiens
  GI50: 1.26 µM
[33]; [39]
  CC50: 6.11 µM
[34]
  TGI: 3.65 µM
[34]; Homo sapiens
  GI50: 1.33 µM
[35]
  TGI: 2.38 µM
[35]; Homo sapiens
  GI50: 1.07 µM
  LC50 (concentration killing 50% of cells): 5.31 µM
[36]
  TGI: 5.25 µM
[36]; Homo sapiens
  GI50: 2.11 µM
[36]; [39]
  CC50: > 100 µM
[37]
  TGI: 2.88 µM
[37]; Homo sapiens
  GI50: 1.52 µM
  LC50 (concentration giving 50% net cell kill): 5.46 µM
[38]
  TGI: 3.17 µM
[38]; Homo sapiens, T47D
  GI50: 0.467 µM
[38]; Homo sapiens, T47D, read-out: LC50 (the source's name)
  CC50: > 100 µM
